Data published in US11730778B2, “Method of increasing the level and production of metabolized phytonutrients in a subject” (ACCESS BUSINESS GROUP INTERNATIONAL LLC, priority 2019, dated 2023).

System: intestinal microbiota (fecal samples) of human subjects
Assay: in-vitro fermentations of fecal samples (intestinal microbiota-representing microarray) with phytonutrient precursor compounds
Type: in vitro ADME
Conditions: in-vitro fermentation; for Phytonutrient Producer Status: conversion of the phytonutrient precursor compound, S1: fecal sample of Subject 1 (S1); for Phytonutrient Producer Status: conversion of the phytonutrient precursor compound, S2: fecal sample of Subject 2 (S2); for Phytonutrient Producer Status: conversion of the phytonutrient precursor compound, S3: fecal sample of Subject 3 (S3); for Phytonutrient Producer Status: conversion of the phytonutrient precursor compound, S4: fecal sample of Subject 4 (S4); for Phytonutrient Producer Status: conversion of the phytonutrient precursor compound, S5: fecal sample of Subject 5 (S5); for Phytonutrient Producer Status: conversion of the phytonutrient precursor compound, S6: fecal sample of Subject 6 (S6); for Phytonutrient Producer Status: conversion of the phytonutrient precursor compound, S7: fecal sample of Subject 7 (S7); for Phytonutrient Producer Status: conversion of the phytonutrient precursor compound, S8: fecal sample of Subject 8 (S8); for Phytonutrient Producer Status: conversion of the phytonutrient precursor compound, S9: fecal sample of Subject 9 (S9); for Phytonutrient Producer Status: conversion of the phytonutrient precursor compound, S10: fecal sample of Subject 10 (S10); for Phytonutrient Producer Status: conversion of the phytonutrient precursor compound, S11: fecal sample of Subject 11 (S11)
Description: The phytonutrient producer status of 11 human subjects (“Subjects 1-11”, or “S1”-“S11”, respectively) was assessed by determining the microbial metabolism of various phytonutrient precursor compounds. […] The metabolism of the phytonutrient precursor compound in each assay was then determined via monitoring conversion (+), partial conversion (±), or no conversion (−) of the phytonutrient precursor compound over time.

SMILES | Phytonutrient Producer Status: conversion of the phytonutrient precursor compound, S1 | Phytonutrient Producer Status: conversion of the phytonutrient precursor compound, S2 | Phytonutrient Producer Status: conversion of the phytonutrient precursor compound, S3 | Phytonutrient Producer Status: conversion of the phytonutrient precursor compound, S4 | Phytonutrient Producer Status: conversion of the phytonutrient precursor compound, S5 | Phytonutrient Producer Status: conversion of the phytonutrient precursor compound, S6 | Phytonutrient Producer Status: conversion of the phytonutrient precursor compound, S7 | Phytonutrient Producer Status: conversion of the phytonutrient precursor compound, S8 | Phytonutrient Producer Status: conversion of the phytonutrient precursor compound, S9 | Phytonutrient Producer Status: conversion of the phytonutrient precursor compound, S10 | Phytonutrient Producer Status: conversion of the phytonutrient precursor compound, S11
OC[C@H]1O[C@@H](Oc2cc3c(O)cc(O)cc3[o+]c2-c2ccc(O)c(O)c2)[C@H](O)[C@@H](O)[C@@H]1O [Cyanidin-3-glucoside] | ± | ± | + | ± | ± | + | + | ± | + | + | +
Oc1cc(O)c2c(c1)O[C@H](c1cc(O)c(O)c(O)c1)[C@H](O)C2 [Epigallocatechol] | + | + | ± | + | + | + | + | + | + | + | +
COc1ccc([C@@H]2CC(=O)c3c(O)cc(O[C@@H]4O[C@H](CO[C@@H]5O[C@@H](C)[C@H](O)[C@@H](O)[C@H]5O)[C@@H](O)[C@H](O)[C@H]4O)cc3O2)cc1O [Hesperidin] | + | + | + | + | ± | + | + | + | + | + | +

More lines, now with the values ahead:

Phytonutrient Producer Status: conversion of the phytonutrient precursor compound, S1 | Phytonutrient Producer Status: conversion of the phytonutrient precursor compound, S2 | Phytonutrient Producer Status: conversion of the phytonutrient precursor compound, S3 | Phytonutrient Producer Status: conversion of the phytonutrient precursor compound, S4 | Phytonutrient Producer Status: conversion of the phytonutrient precursor compound, S5 | Phytonutrient Producer Status: conversion of the phytonutrient precursor compound, S6 | Phytonutrient Producer Status: conversion of the phytonutrient precursor compound, S7 | Phytonutrient Producer Status: conversion of the phytonutrient precursor compound, S8 | Phytonutrient Producer Status: conversion of the phytonutrient precursor compound, S9 | Phytonutrient Producer Status: conversion of the phytonutrient precursor compound, S10 | Phytonutrient Producer Status: conversion of the phytonutrient precursor compound, S11 | SMILES
± | ± | ± | − | − | − | − | ± | − | ± | − | O=c1oc2c(O)c(O)cc3c(=O)oc4c(O)c(O)cc1c4c23 [Ellagic acid]
− | + | + | + | − | + | + | − | − | + | − | O=c1c(O)c(-c2ccc(O)c(O)c2)oc2cc(O)cc(O)c12 [Quercetin]
+ | + | ± | + | + | ± | ± | ± | + | + | + | COc1cc(C[C@@H](CO[C@@H]2O[C@H](CO)[C@@H](O)[C@H](O)[C@H]2O)[C@H](CO[C@@H]2O[C@H](CO)[C@@H](O)[C@H](O)[C@H]2O)Cc2ccc(O)c(OC)c2)ccc1O [Secoisolariciresinol diglucoside]
